For one experiment, the target named is Abl1 (Homo sapiens, UniProt P00519). Nature of the experiment: Biochemical ABL1 kinase assay (33P-ATP). The following applies: read-out: inhibition in the Abl1 assay.
The target in the next experiment is Abl2 (Homo sapiens, UniProt P42684). Briefly: biochemical. Conditions: read-out: inhibition in the Abl2 assay.

In patent publication US20210346357A1 (priority 2020, published 2021) one finds inhibition data, which are given here for one compound.

Broadly, the inhibition is how much of the control response was suppressed.

Sequence of Abl1 (P00519 whole entry): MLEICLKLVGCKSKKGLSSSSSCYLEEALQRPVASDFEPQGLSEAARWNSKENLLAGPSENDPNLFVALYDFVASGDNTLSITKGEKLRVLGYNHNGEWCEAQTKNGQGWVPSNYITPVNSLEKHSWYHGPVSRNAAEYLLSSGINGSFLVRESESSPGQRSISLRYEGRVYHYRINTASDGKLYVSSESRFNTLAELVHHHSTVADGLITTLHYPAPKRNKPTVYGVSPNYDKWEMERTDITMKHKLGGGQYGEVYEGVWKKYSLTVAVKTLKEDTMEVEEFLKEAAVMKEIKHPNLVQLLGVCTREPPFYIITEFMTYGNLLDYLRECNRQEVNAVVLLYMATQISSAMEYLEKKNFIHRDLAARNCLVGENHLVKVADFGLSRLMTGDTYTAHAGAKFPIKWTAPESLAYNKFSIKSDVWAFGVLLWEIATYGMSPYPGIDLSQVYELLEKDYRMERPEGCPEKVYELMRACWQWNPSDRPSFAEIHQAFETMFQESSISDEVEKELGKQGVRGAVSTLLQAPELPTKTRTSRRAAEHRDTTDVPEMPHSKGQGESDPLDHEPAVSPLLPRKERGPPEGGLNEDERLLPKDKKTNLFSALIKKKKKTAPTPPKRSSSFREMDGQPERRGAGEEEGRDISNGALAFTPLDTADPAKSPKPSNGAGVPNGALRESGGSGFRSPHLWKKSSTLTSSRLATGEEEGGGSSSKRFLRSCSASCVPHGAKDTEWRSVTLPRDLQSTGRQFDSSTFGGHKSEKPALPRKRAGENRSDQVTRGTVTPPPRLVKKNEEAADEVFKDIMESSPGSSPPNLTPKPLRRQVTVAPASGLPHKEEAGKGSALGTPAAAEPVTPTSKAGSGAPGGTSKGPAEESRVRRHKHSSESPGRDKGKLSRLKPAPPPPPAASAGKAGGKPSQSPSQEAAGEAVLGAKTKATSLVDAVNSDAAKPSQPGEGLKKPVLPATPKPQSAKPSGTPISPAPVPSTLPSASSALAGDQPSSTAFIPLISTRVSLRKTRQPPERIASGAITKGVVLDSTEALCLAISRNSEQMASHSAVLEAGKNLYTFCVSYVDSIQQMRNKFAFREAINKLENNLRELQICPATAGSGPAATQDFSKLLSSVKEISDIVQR
Sequence of Abl2 (P42684 whole entry): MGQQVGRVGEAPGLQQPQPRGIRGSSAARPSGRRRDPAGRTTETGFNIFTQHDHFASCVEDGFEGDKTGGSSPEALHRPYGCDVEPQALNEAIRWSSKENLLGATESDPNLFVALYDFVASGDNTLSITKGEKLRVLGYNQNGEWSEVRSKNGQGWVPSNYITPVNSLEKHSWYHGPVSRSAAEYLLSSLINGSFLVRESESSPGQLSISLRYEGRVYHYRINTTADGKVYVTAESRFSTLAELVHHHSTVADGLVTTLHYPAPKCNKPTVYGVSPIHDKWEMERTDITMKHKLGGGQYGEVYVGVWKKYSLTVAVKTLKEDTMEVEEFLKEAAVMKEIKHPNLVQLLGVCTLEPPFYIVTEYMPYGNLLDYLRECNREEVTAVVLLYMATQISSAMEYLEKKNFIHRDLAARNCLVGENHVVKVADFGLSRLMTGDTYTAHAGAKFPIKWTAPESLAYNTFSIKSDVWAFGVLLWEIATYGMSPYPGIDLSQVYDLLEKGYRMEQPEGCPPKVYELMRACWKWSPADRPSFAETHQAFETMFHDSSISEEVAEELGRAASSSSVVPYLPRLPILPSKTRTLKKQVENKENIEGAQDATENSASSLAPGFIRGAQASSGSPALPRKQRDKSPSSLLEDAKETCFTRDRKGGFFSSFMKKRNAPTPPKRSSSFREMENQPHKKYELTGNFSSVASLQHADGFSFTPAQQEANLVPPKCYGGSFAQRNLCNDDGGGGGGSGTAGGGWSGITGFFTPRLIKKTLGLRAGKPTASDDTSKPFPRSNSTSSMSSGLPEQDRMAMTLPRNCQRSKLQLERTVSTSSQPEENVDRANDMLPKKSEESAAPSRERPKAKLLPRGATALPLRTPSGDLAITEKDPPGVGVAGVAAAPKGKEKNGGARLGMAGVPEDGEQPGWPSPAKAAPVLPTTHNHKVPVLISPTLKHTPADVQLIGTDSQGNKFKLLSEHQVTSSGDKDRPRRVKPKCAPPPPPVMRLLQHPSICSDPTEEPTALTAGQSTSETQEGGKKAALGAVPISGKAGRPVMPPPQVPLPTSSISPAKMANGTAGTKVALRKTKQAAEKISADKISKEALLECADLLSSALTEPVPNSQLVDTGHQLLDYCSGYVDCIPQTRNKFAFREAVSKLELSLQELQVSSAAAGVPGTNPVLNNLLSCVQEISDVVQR

Regarding `CCS(=O)(=O)N1CC(CC#N)(n2cc(-c3ncnc4[nH]ccc34)cn2)C1` [baricitinib, reference compound], the inhibition at 10 µM on Abl1 was found to be 80%; on Abl2 it was 35%.
